The values that follow come from ChEMBL document CHEMBL1127854, “Bromobenzofuran-based non-peptide antagonists of angiotensin II: GR138950, a potent antihypertensive agent with high oral bioavailability” (J Med Chem, 1994).

One may read the bioavailability as dose-corrected exposure relative to a reference, in per cent. Read a low bioavailability as poor availability. Usually half-life stands for the time in which the quantity being followed falls by half. Lower therefore signals fast loss. As usually defined, the Vd is a proportionality between amount in the body and measured concentration, not a real space. The low end stands for confinement near the circulation, the high end for extensive tissue distribution. By clearance is commonly meant the rate of elimination divided by the concentration. Read a high clearance as efficient removal.

In series [1] the test system is Rattus norvegicus. In words: […] antihypertensive activity in renal hypertensive rat at 0.5 mg/kg after 24 hr of oral administration. It is filed as functional.
In series [2] the test system is Rattus norvegicus. In words: […] antihypertensive activity in renal hypertensive rat at 0.5 mg/kg after 7 hr of oral administration. It is filed as functional.
In a further series the target is T1, Angiotensin II receptor (Rattus norvegicus, UniProt P29089+P25095+P35351).
T1 sequence (P29089 whole entry): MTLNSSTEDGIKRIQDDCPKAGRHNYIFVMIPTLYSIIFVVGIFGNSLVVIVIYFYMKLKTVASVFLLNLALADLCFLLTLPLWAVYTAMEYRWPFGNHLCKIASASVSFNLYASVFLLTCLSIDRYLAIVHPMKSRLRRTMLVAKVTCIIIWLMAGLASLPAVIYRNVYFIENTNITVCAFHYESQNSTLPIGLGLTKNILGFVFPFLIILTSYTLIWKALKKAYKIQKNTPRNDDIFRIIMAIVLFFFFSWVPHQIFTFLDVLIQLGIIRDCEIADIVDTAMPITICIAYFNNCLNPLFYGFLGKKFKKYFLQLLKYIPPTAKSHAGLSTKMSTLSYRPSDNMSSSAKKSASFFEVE
T1 sequence (P25095 whole entry): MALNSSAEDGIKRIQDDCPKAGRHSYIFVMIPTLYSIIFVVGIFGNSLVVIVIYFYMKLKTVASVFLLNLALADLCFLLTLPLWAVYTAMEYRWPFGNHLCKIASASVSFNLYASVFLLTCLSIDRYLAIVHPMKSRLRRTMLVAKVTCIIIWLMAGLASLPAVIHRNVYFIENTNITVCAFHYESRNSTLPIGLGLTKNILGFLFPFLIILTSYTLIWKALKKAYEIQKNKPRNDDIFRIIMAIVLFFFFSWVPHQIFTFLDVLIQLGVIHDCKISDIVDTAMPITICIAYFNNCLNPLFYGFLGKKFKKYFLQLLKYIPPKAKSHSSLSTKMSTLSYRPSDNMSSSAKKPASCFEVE
T1 sequence (P35351 whole entry): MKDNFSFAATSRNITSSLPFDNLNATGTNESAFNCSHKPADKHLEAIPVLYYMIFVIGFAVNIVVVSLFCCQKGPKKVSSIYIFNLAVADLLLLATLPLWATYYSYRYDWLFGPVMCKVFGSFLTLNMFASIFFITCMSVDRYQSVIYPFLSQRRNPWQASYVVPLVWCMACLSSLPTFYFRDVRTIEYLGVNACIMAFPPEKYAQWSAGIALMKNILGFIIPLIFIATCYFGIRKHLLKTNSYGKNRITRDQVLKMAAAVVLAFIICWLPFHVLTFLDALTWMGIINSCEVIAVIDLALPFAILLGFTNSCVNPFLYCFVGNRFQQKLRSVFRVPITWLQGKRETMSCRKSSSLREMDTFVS
In words: Tested for in vitro binding affinity against angiotensin II receptor of rat liver.

Series [3] concerns Rattus norvegicus. Put plainly: […] antihypertensive activity in renal hypertensive rat at 0.5 mg/kg after 5 hr of oral administration. The format is functional.
A short description of series [4]: Bioavailability in dog (dose 3-10 mg/kg). The note with it: in vivo. The format is ADME, organism-based, Canis lupus familiaris.
The nature of series [5]: Half-life in plasma of dog at dose of […]-[…] mgkg. It is filed as ADME, organism-based, Canis lupus familiaris.
Series [6] is described as follows: The compound was tested for volume of distribution in dog at dose of 3-10 mgkg. The conditions noted are these: in vivo. It is filed as ADME, organism-based, Canis lupus familiaris.
Series [7] is described as follows: The compound was tested for plasma clearance in dog at dose of 3-10 mgkg. It is filed as ADME, organism-based, Canis lupus familiaris.

For `CCc1nc(Cl)c(C(=O)NC)n1Cc1ccc2oc(-c3ccccc3NS(=O)(=O)C(F)(F)F)c(Br)c2c1`, the Activity in the series on Rattus norvegicus [1] is reported as -4; in the series with Rattus norvegicus [2] it was -31; in the series with Rattus norvegicus [3] it was -30. Also, at Angiotensin II receptor, the “Log Ki” value was -8.6.

For `CCc1c(-c2ccccc2NS(=O)(=O)C(F)(F)F)oc2ccc(Cn3c(CC)nc(C4CC4)c3C(N)=O)cc12`, the figures for the Activity with Rattus norvegicus [1], in the series on Rattus norvegicus [2] and in the series with Rattus norvegicus [3] were -2, -42 and -37, respectively. Further, the “Log Ki” value at Angiotensin II receptor is -8.8.

Consider `CCNC(=O)c1c(Cl)nc(CC)n1Cc1ccc2oc(-c3ccccc3NS(=O)(=O)C(F)(F)F)c(Br)c2c1`, for which the Activity with Rattus norvegicus [1] is -12; in the series on Rattus norvegicus [2], -43; in the series with Rattus norvegicus [3], -37. Besides, the “Log Ki” value at Angiotensin II receptor is recorded as -8.7.

Regarding `CCCc1nc(Cl)c(C(N)=O)n1Cc1ccc2oc(-c3ccccc3NS(=O)(=O)C(F)(F)F)c(Br)c2c1`, the values for the Activity in the series with Rattus norvegicus [1], with Rattus norvegicus [2] and with Rattus norvegicus [3] were 9, -28 and -19, respectively. In addition, on Angiotensin II receptor, the “Log Ki” value is -8.7.

On to `CCc1nc(C2CC2)c(C(=O)NCC(C)C)n1Cc1ccc2oc(-c3ccccc3NS(=O)(=O)C(F)(F)F)c(Br)c2c1`, for which the Activity is on record as -47 in the series on Rattus norvegicus [1], -70 in the series on Rattus norvegicus [2] and -63 in the series with Rattus norvegicus [3]. The “Log Ki” value on Angiotensin II receptor is recorded as -9.9.

`CCCc1nc(Cl)c(C(=O)NCC)n1Cc1ccc2oc(-c3ccccc3NS(=O)(=O)C(F)(F)F)c(Br)c2c1`: the Activity in the series with Rattus norvegicus [1] is reported as -13; with Rattus norvegicus [2], -54; in the series with Rattus norvegicus [3] it was -40. Besides, the “Log Ki” value at Angiotensin II receptor is given as -9.

In the case of `CCCCc1nc(Cl)c(C(=O)NC)n1Cc1ccc2oc(-c3ccccc3-c3nn[nH]n3)c(Br)c2c1`, in series [4], the bioavailability turned out to be 36%. The compound also gave a half-life in series [5] of 0.5 h. The compound also had a distribution volume (Vd) in series [6] of 0.3 L/kg. In series [7], this compound yielded a clearance of 11 mL/min/kg.

In the case of `CCCc1nc(Cl)c(C(=O)NC)n1Cc1ccc2oc(-c3ccccc3NS(=O)(=O)C(F)(F)F)c(Br)c2c1`, the Activity was -19 with Rattus norvegicus [1], -61 in the series on Rattus norvegicus [2] and -67 with Rattus norvegicus [3]. For the same compound, the “Log Ki” value at Angiotensin II receptor is -8.9.

In the case of `CCNC(=O)c1c(C2CC2)nc(CC)n1Cc1ccc2oc(-c3ccccc3NS(=O)(=O)C(F)(F)F)c(Br)c2c1`, the Activity in the series on Rattus norvegicus [1] is reported as -14; with Rattus norvegicus [2], -63; in the series on Rattus norvegicus [3], -53. Further, the “Log Ki” value at Angiotensin II receptor is listed as -9.2.

In the case of `CCCc1nc(C)c(C(=O)NC)n1Cc1ccc2oc(-c3ccccc3NS(=O)(=O)C(F)(F)F)c(Br)c2c1`, the Activity is -12 with Rattus norvegicus [1], -50 in the series with Rattus norvegicus [2] and -30 with Rattus norvegicus [3]. Moreover, at Angiotensin II receptor, the “Log Ki” value is reported as -9.

On to `CCCCc1nc(Cl)c(C(=O)O)n1Cc1ccc2oc(-c3ccccc3-c3nn[nH]n3)c(Br)c2c1` [ZOLASARTAN], for which the bioavailability in series [4] was 9%. The same compound showed a half-life in series [5] of 2.5 h. The Vd in series [6] turned out to be 1.2 L/kg. Moreover, the clearance in series [7] was 6 mL/min/kg.

Regarding `CCc1nc(C2CC2)c(C(=O)NC)n1Cc1ccc2oc(-c3ccccc3NS(=O)(=O)C(F)(F)F)c(Br)c2c1`, the figures for the Activity with Rattus norvegicus [1], with Rattus norvegicus [2] and in the series on Rattus norvegicus [3] were -9, -52 and -60, respectively. Also, the “Log Ki” value at Angiotensin II receptor is on record as -9.4.

Turning to `CCCc1nc(C)c(C(N)=O)n1Cc1ccc2oc(-c3ccccc3NS(=O)(=O)C(F)(F)F)c(Br)c2c1`, the Activity in the series with Rattus norvegicus [1] was -8; in the series on Rattus norvegicus [2], -37; in the series on Rattus norvegicus [3], -38. In addition, at Angiotensin II receptor, the “Log Ki” value was -9.1.

In series [4], `CCOC(=O)c1c(C)nc(CC)n1Cc1ccc2oc(-c3ccccc3-c3nn[nH]n3)c(Br)c2c1` yielded a bioavailability of 70%. The half-life in series [5] was 0.2 h. For the same compound, in series [6], the distribution volume (Vd) worked out at 2 L/kg. The same compound came in with a clearance in series [7] of about 100 mL/min/kg.

For the compound `CCc1nc(CC(C)C)c(C(N)=O)n1Cc1ccc2oc(-c3ccccc3NS(=O)(=O)C(F)(F)F)c(Br)c2c1`, the Activity in the series on Rattus norvegicus [1] was -8; in the series with Rattus norvegicus [2], -19; with Rattus norvegicus [3] it was -4. Also, the “Log Ki” value on Angiotensin II receptor is given as -7.7.

On to `CCc1nc(C(C)C)c(C(N)=O)n1Cc1ccc2oc(-c3ccccc3NS(=O)(=O)C(F)(F)F)c(Br)c2c1`, for which the Activity in the series with Rattus norvegicus [1] is recorded as -13; in the series on Rattus norvegicus [2] it was -22; with Rattus norvegicus [3], -21. At Angiotensin II receptor, the “Log Ki” value was -8.4.

For the compound `CCc1nc(C)c(C(N)=O)n1Cc1ccc2oc(-c3ccccc3NS(=O)(=O)C(F)(F)F)c(Br)c2c1`, the values for the Activity with Rattus norvegicus [1], in the series on Rattus norvegicus [2] and in the series on Rattus norvegicus [3] were -3, -61 and -40, respectively. Moreover, the “Log Ki” value on Angiotensin II receptor is given as -8.9.

Take `CCc1nc(C)c(C(=O)NC)n1Cc1ccc2oc(-c3ccccc3NS(=O)(=O)C(F)(F)F)c(Br)c2c1`: the Activity in the series on Rattus norvegicus [1] is recorded as -6; in the series with Rattus norvegicus [2] it was -54; in the series with Rattus norvegicus [3], -43. Further, the “Log Ki” value at Angiotensin II receptor is -8.5.

Turning to `CCNC(=O)c1c(C2CC2)nc(CC)n1Cc1ccc2oc(-c3ccccc3-c3nn[nH]n3)c(Br)c2c1`, the Activity with Rattus norvegicus [1] was -1; with Rattus norvegicus [2] it was -9; in the series with Rattus norvegicus [3], -8. For the same compound, at Angiotensin II receptor, the “Log Ki” value is listed as -9.4.

In the case of `CCc1nc(C)c(C(=O)N(C)C)n1Cc1ccc2oc(-c3ccccc3NS(=O)(=O)C(F)(F)F)c(Br)c2c1`, the Activity in the series on Rattus norvegicus [1] is on record as 1; in the series on Rattus norvegicus [2] it was 2; in the series on Rattus norvegicus [3], 1. The “Log Ki” value on Angiotensin II receptor is -8.6.

`CCc1nc(Cl)c(C(N)=O)n1Cc1ccc2oc(-c3ccccc3NS(=O)(=O)C(F)(F)F)c(Br)c2c1`: the values for the Activity in the series on Rattus norvegicus [1], with Rattus norvegicus [2] and with Rattus norvegicus [3] were -12, -55 and -57, respectively. For the same compound, at Angiotensin II receptor, the “Log Ki” value was -8.5.

For the compound `CCCCc1nc(Cl)c(CO)n1Cc1ccc(-c2ccccc2-c2nnn[nH]2)cc1` [LOSARTAN], the Activity in the series with Rattus norvegicus [1] is given as -36; in the series on Rattus norvegicus [2], -41; with Rattus norvegicus [3], -30.

For the compound `CCc1nc(C)c(C(=O)O)n1Cc1ccc2oc(-c3ccccc3-c3nn[nH]n3)c(Br)c2c1`, the bioavailability in series [4] is 8%. The compound also had a half-life in series [5] of 4 h. This compound displayed a Vd in series [6] of 2 L/kg. In series [7], this compound displayed a clearance of 6 mL/min/kg.

Consider `CCc1nc(C2CC2)c(C(N)=O)n1Cc1ccc2oc(-c3ccccc3NS(=O)(=O)C(F)(F)F)cc2c1`, for which the Activity is 7 with Rattus norvegicus [1], -16 in the series with Rattus norvegicus [2] and -18 in the series on Rattus norvegicus [3]. For the same compound, at Angiotensin II receptor, the “Log Ki” value is given as -7.

Consider `CNC(=O)c1c(C)nc(C)n1Cc1ccc2oc(-c3ccccc3NS(=O)(=O)C(F)(F)F)c(Br)c2c1`, for which the Activity with Rattus norvegicus [1] is -3; in the series with Rattus norvegicus [2] it was 0; in the series with Rattus norvegicus [3] it was 6. In addition, the “Log Ki” value at Angiotensin II receptor is recorded as -7.5.

Regarding `CCc1nc(CC)n(Cc2ccc3oc(-c4ccccc4NS(=O)(=O)C(F)(F)F)c(Br)c3c2)c1C(N)=O`, the Activity is -17 in the series on Rattus norvegicus [1], -38 with Rattus norvegicus [2] and -35 with Rattus norvegicus [3]. Besides, the “Log Ki” value at Angiotensin II receptor is reported as -9.1.

`CCNC(=O)c1c(C)nc(CC)n1Cc1ccc2oc(-c3ccccc3NS(=O)(=O)C(F)(F)F)c(Br)c2c1`: the Activity was 4 in the series on Rattus norvegicus [1], -33 in the series on Rattus norvegicus [2] and -17 in the series on Rattus norvegicus [3]. In addition, the “Log Ki” value at Angiotensin II receptor is -8.9.
